Measurements as given in patent publication US20150374676A1, “HELICASE-PRIMASE INHIBITORS FOR USE IN A METHOD OF TREATING ALZHEIMER'S DISEASE” (AICURIS GMBH & CO. KG, priority 2013, published 2015).

Legend:
[1] = in vivo; cited from earlier work
HSV-1 [2] = details: HSV-1-infected cell cultures; cited from earlier work
HSV-1 [3] = experiment: HSV-1 infected SH-SY5Y cells, immunocytochemistry for HSV-1 proteins, Aβ and P-tau; assay type: cell-based, herpes simplex virus type 1; details: MOI 0.01 pfu/cell, 24 h; for staining for Aβ / staining for P-tau: 0.025-25 μM
Procedure: SH-SY5Y cells were infected with HSV-1 at 0.01 plaque forming units (pfu) per cell [pfu/cell] for 24 hours and treated with varying concentrations of ACV and/or the exemplary compound according to Formula (I). Subsequently, cells were fixed and examined for HSV-1 proteins (A), Aβ (B) and P-tau (C) by immunocytochemistry. 1=vehicle; 2-5=increasing concentrations of the exemplary compound according to Formula (I) [0.025, 0.25, 2.5, 25 μM]; 6-9=increasing concentrations of acyclovir [0.025, 0.25, 2.5, 25 μM].
(§1) The inventors have compared the efficacy of the exemplary compound according to Formula (I) with that of ACV in respect to Aβ and P-tau accumulation in HSV-1 infected cells. African green monkey kidney (Vero) cells or human neuroblastoma (SH-SY5Y) cells were infected with HSV-1 at a multiplicity of infection (MOI) of 0.01 plaque forming units (pfu) per cell [pfu/cell] for 24 hours and were treated with the exemplary compound according to Formula (I), or ACV. The antiviral agents were added at the time of infection and remained throughout the infection. Infection led to typical cytopathic effects (clustering of infected cells positive for HSV-1 protein staining (FIGS. 1A and 2 A, panel 1)).

HSV-1 [4] = experiment: HSV-1 infected Vero cells, immunocytochemistry for HSV-1 proteins, Aβ and P-tau; assay type: cell-based, herpes simplex virus type 1; details: MOI 0.01 pfu/cell, 24 h; for staining for Aβ / staining for P-tau: 0.025-25 μM
Procedure: Vero cells were infected with HSV-1 at 0.01 plaque forming units (pfu) per cell [pfu/cell] for 24 hours and treated with varying concentrations of ACV and/or the exemplary compound according to Formula (I). Subsequently, cells were fixed and examined for HSV-1 proteins (A), Aβ(B) and P-tau (C) by immunocytochemistry. 1=vehicle; 2-5=increasing concentrations of the exemplary compound according to Formula (I) [0.025, 0.25, 2.5, 25 μM]; 6-9=increasing concentrations of acyclovir [0.025, 0.25, 2.5, 25 μM].
as §1

[5] = cited from earlier work
[6] = absolute bioavailability after oral administration; details: in vivo; oral administration of the mono mesylate monohydrate salt in a composition of the invention; human; read-out: absolute bioavailability of the free base
Description: In yet another aspect of the invention said absolute bioavailability of 70%±30% of the resultant free base form of N-[5-(aminosulfonyl)-4-methyl-1,3-thiazol-2-yl]-N-methyl-2-[4-(2-pyridinyl)-phenyl]acetamide is achieved in a human.
In the context of the present invention the term “bioavailability” denotes a subcategory of absorption. Bioavailability denotes the fraction of an administered oral dose of the crystalline N-[5-(aminosulfonyl)-4-methyl-1,3-thiazol-2-yl]-N-methyl-2-[4-(2-pyridinyl)-phenyl]acetamide mono methanesulfonic acid monohydrate of the invention that reaches the systemic circulation of a subject as the resultant free base form of N-[5-(aminosulfonyl)-4-methyl-1,3-thiazol-2-yl]-N-methyl-2-[4-(2-pyridinyl)-phenyl]acetamide. By definition, when a medication is administered intravenously, its bioavailability is 100%. However, when a medication is administered via other routes (such as orally), its bioavailability generally decreases (due to incomplete absorption and first-pass metabolism) or may vary from individual to individual. Bioavailability is one of the essential tools in pharmacokinetics, as bioavailability must be considered when calculating dosages for non-intravenous routes of administration.

[7] = safety and tolerability in single and multiple dose phase I trials; assay type: in vivo, human; details: healthy male volunteers, single dose and daily doses for 21 days
Procedure: The results were compared with the effective concentration of the free base of N-[5-(aminosulfonyl)-4-methyl-1,3-thiazol-2-yl]-N-methyl-2-[4-(2-pyridinyl)phenyl]acetamide in cell culture and correlated to exposures reached in healthy male volunteers in single and multiple dose phase I trials (see FIGS. 4-7).
(§2) In healthy male volunteers these plasma concentrations were covered by a single dose of 40 mg as free base equivalent to the crystalline mono mesylate monohydrate salt of N-[5-(aminosulfonyl)-4-methyl-1,3-thiazol-2-yl]-N-methyl-2-[4-(2-pyridinyl)phenyl]-acetamide (see FIG. 4) and at steady state by daily doses of 25 mg as free base equivalent (see FIG. 5) for 21 days.

HSV = experiment: murine HSV skin infection model; assay type: in vivo; details: oral doses of 5 mg/kg or higher once daily for four days; data not shown
Procedure: To assess the pharmacokinetic/pharmacodynamic profile the effective dose of the specific free base of N-[5-(aminosulfonyl)-4-methyl-1,3-thiazol-2-yl]-N-methyl-2-[4-(2-pyridinyl)phenyl]-acetamide was validated in a murine HSV skin infection model and associated plasma concentrations were determined (data not shown).
as §2

[8] = higher concentrations 0.25, 2.5, 25 μM

Row | SMILES | oral bioavailability [1] | HSV-1 induced accumulation of Aβ and P-tau (HSV-1 [2]) | cluster size of HSV-1 infected cells (HSV-1 protein staining) (HSV-1 [3]; 0.025 μM) | staining for Aβ (HSV-1 [3]) | staining for P-tau (HSV-1 [3]) | cluster size of HSV-1 infected cells (HSV-1 protein staining) (HSV-1 [3]; [8]) | cluster size of HSV-1 infected cells (HSV-1 protein staining) (HSV-1 [4]; 0.025 μM) | staining for Aβ (HSV-1 [4]) | staining for P-tau (HSV-1 [4]) | cluster size of HSV-1 infected cells (HSV-1 protein staining) (HSV-1 [4]; [8]) | water solubility [5] | bioavailability [6] | safety and tolerability [7] | suppression of murine HSV skin infection (HSV) | antibody staining to HSV-1 proteins, Aβ and P-tau (HSV-1 [3]) | antibody staining to HSV-1 proteins, Aβ and P-tau (HSV-1 [4])
1 | Nc1nc2c(ncn2COCCO)c(=O)[nH]1 [ACV, acyclovir, reference compound] | 15-30% | reduced the virus-induced accumulation of Aβ and P-tau | little effect on cluster sizes | still visible at higher concentrations of ACV | still visible at higher concentrations of ACV | reduced their sizes but less so than did the treatment with equimolar exemplary compound according to Formula (I) | little effect on cluster sizes | still visible at higher concentrations of ACV | still visible at higher concentrations of ACV | reduced their sizes but less so than did the treatment with equimolar exemplary compound according to Formula (I) | poorly water-soluble |  |  |  |  | 
2 | Cc1nc(N(C)C(=O)Cc2ccc(-c3ccccn3)cc2)sc1S(N)(=O)=O [N-[5-(aminosulfonyl)-4-methyl-1,3-thiazol-2-yl]-N-methyl-2-[4-(2-pyridinyl)phenyl]acetamid] |  |  | slightly smaller compared to control | reduced | reduced | clusters disappear and only occasionally infected cells could be detected | slightly smaller compared to control | reduced | reduced | clusters disappear and only occasionally infected cells could be detected |  | 70% | safe and well tolerated up to the highest dose tested | completely suppressed | total or almost total removal of antibody staining | total or almost total removal of antibody staining
